We go through three compounds from patent US9572788B2, “Cell permeable inhibitors of anaphase promoting complex” (President and Fellows of Harvard College, priority 2014, dated 2017).

The subject of one assay is Xenopus APC. Briefly: ^3H-TAME binding assay in interphase extract. As to conditions: 200 nM ^3H-TAME. The text has this: The beads were washed quickly twice with XB high salt and twice with XB.
Another assay deals with APC (Xenopus laevis, UniProt A0A1L8ESF3). Briefly: Cyclin B1-luciferase reporter degradation (luciferase assay) in mitotic Xenopus egg extract. Format: biochemical. Conditions: mitotic Xenopus extract. Background: In a reporter assay the amount or activity of a reporter protein is the signal.
The next assay deals with APC/C. Briefly: ^35S-labeled substrate degradation in mitotic Xenopus egg extract. Format: biochemical. As to conditions: 200 μM.
The target in the next assay is APC/C-Cdc20 (Xenopus laevis, UniProt Q6DFD4). Briefly: Kinetics of APC/C-Cdc20-dependent ubiquitination of cyclin B1 N-terminal fragment. Format: biochemical. As to conditions: methylated ubiquitin. The method, then: Measurements of kinetics of ubiquitination were performed using an N-terminal fragment of cyclin B1 and APC/C isolated from Xenopus extract, exactly as previously described (Zeng, X. & King, R. W. Nat Chem Biol 8, 383-392, (2012)).
Kinetic analysis of APC^Cdc20 reactions. Endogenous APC^Cdc20 was isolated from Xenopus extract as described above. The ubiquitination mixture was prepared as described in Cdc20 ubiquitination assay with the exception that 60 μM methylated ubiquitin was used in place of WT ubiquitin. CycB-NT was diluted into the mixture to final concentrations of 1 μM, 500 nM, 250 nM, 125 nM and 62.5 nM prior to the reaction. For each reaction, 2.5 μl beads were mixed with 20 μl ubiquitination mixture and left on a shaker at RT for 30 seconds. The reaction was stopped by adding 7 μl hot 4×LDS sample buffer (Invitrogen NP0007)+[…]. Band intensity of the mono-, di-, and tri-ubiquitinated cycB-NT was quantitated with Image J and fitted to a hyperbolic equation by nonlinear regression.

A further assay concerns RPE1-H2B-GFP cells. The assay is described as follows: Fluorescence live cell imaging with survival (Cox) analysis, RPE1. The class given is cell-based, human. As to conditions: proTAME 6 μM; for % rate of mitotic exit: relative to DMSO control, Cox model, apcin/apcin-M 25 μM; for Median mitotic duration: apcin or apcin-M 25 μM. As to the method: RPE1-H2B-GFP or U2OS-H2B-GFP cells were plated in 24-well glass-bottom plates 18-24 hours prior to siRNA transfection using RNAiMax (Invitrogen). After treatment with compound(s), DIC and GFP images were captured at 6-minute intervals for 45 hours. Movies were manually analyzed using Nikon Elements software or Image J.
RPE1-H2B-GFP or U2OS-H2B-GFP cells were plated in 24-well glass-bottom plates (Greiner BioOne, 662892) 18-24 hours prior to siRNA transfection using RNAiMax (Invitrogen). Plates were inserted into a covered chamber supplied with humidified 5% CO2 and mounted onto a motorized microscope stage (Prior Scientific). DIC and FITC images were captured at 6 minute intervals for 45 hours using a Nikon Ti inverted fluorescence microscope fitted with a 37° C. enclosed incubation chamber and using a 20× Plan Apo 0.75 NA objective lens. A Hamamatsu ORCA cooled CCD camera collected the images with 2×2 binning using Nikon Elements software (version 3.0). Movies were manually analyzed using Nikon Elements software or ImageJ. Mitotic duration was defined as the time from nuclear envelope breakdown until anaphase, in the case of normal mitosis, or until exit from prolonged mitosis as indicated by cytoplasmic blebbing accompanied by changes in chromatin as detected by H2B-GFP.
In order to detect differences in mitotic duration among cells in the live-cell imaging screen, a stratified Cox proportional hazards model (Cox, D. R. Regression models and life tables. J Royal Statistics Soc B34, 187-220, (1972)) was fit to censored mitotic duration times (where cells that are not observed exiting mitosis or dying in mitosis are censored at the last known time in mitosis). The Cox proportional hazards model is a semiparameteric approach to modeling time-to-event data, in which covariates are assumed to have constant proportional effects over time relative to a baseline hazard function that can take any form. In this case, stratification on “person” (the individual who analyzed the movie) and “date” (the date the assay was run) allow the baseline hazard function to differ across experimental blocks, but assume a fixed effect of treatment across experimental blocks. The model is thus: hi(t|Z=j)=hj(t)exp(β1×apcini+β2×apcinMi+β3×proTAMEi+β4×proTAMEi:apcinMi+β5×proTAMEi:apcini), j=1 . . . 4 where hi(t) is the hazard function of cell i at time t, hj(t) is the baseline hazard for strata j (with 4 levels, one for each person and date combination), apcini, proTAMEi, and apcinMi are indicator variables for presence or absence of the compounds apcin, proTAME, and apcin-M, respectively in cell i, proTAMEi:apcini is an indicator variable that is 1 if both proTAME and apcin are present in cell i, and 0 otherwise, and proTAMEi:apcinMi is a similar indicator variable for proTAME+apcin-M. In this model, […] represent the effects of apcin, apcin-M, and proTAME alone, while β4 and β5 represent the additional non-additive effect of the compounds beyond what is predicted from the combination of effects of the two compounds alone. This model was fit separately to cells treated with control siRNA or Mad2 siRNA. All statistical analysis was carried out in R 3.0.0 using the functions available as part of the survival package.
In this model, the β coefficients represent the log hazard ratios for exiting mitosis between treated and untreated cells. However, for ease of interpretation the β coefficients are exponentiated to convert them to normal hazard ratios, and then multiplied by 100 to convert to percentages relative to DMSO. These hazard ratios, which are referred to as mitotic exit rate, represent the relative probability that a treated cell in mitosis at time t will exit mitosis in the next time interval compared to an untreated cell.
For ease of interpretation, the treatment effects are presented relative to DMSO for all individual compounds and compound combinations. […]

A further assay concerns U2OS-H2B-GFP cells. The assay is described as follows: Fluorescence live cell imaging with survival (Cox) analysis, U2OS. Format: cell-based, human. Conditions: proTAME 12 μM. The method, then:
Mitotic duration and cell fate were determined by manual inspection of the movies and plotted as Kaplan-Meier curves. The hatch marks on the Kaplan-Meier curved indicate mitotic duration endpoints of censored cells. Includes the combined results of five independent experiments. […] Pairwise comparison between proTAME and proTAME+apcin-M tested using a Cox proportional hazards model stratified by date, using data from only the experimental blocks in which both proTAME and proTAME+apcin were tested.
Movies were manually analyzed using Nikon Elements software or Image J.
Plates were inserted into a covered chamber supplied with humidified 5% CO2 and mounted onto a motorized microscope stage (Prior Scientific). […] A Hamamatsu ORCA cooled CCD camera collected the images with 2×2 binning using Nikon Elements software (version 3.0). Movies were manually analyzed using Nikon Elements software or ImageJ. Mitotic duration was defined as the time from nuclear envelope breakdown until anaphase, in the case of normal mitosis, or until exit from prolonged mitosis as indicated by cytoplasmic blebbing accompanied by changes in chromatin as detected by H2B-GFP.
The Cox proportional hazards model is a semiparameteric approach to modeling time-to-event data, in which covariates are assumed to have constant proportional effects over time relative to a baseline hazard function that can take any form. In this case, stratification on “person” (the individual who analyzed the movie) and “date” (the date the assay was run) allow the baseline hazard function to differ across experimental blocks, but assume a fixed effect of treatment across experimental blocks. The model is thus: hi(t|Z=j)=hj(t)exp(β1×apcini+β2×apcinMi+β3×proTAMEi+β4×proTAMEi:apcinMi+β5×proTAMEi:apcini), j=1 . . . […] This model was fit separately to cells treated with control siRNA or Mad2 siRNA. All statistical analysis was carried out in R 3.0.0 using the functions available as part of the survival package.

APC, sequence (A0A1L8ESF3 entry or part of it): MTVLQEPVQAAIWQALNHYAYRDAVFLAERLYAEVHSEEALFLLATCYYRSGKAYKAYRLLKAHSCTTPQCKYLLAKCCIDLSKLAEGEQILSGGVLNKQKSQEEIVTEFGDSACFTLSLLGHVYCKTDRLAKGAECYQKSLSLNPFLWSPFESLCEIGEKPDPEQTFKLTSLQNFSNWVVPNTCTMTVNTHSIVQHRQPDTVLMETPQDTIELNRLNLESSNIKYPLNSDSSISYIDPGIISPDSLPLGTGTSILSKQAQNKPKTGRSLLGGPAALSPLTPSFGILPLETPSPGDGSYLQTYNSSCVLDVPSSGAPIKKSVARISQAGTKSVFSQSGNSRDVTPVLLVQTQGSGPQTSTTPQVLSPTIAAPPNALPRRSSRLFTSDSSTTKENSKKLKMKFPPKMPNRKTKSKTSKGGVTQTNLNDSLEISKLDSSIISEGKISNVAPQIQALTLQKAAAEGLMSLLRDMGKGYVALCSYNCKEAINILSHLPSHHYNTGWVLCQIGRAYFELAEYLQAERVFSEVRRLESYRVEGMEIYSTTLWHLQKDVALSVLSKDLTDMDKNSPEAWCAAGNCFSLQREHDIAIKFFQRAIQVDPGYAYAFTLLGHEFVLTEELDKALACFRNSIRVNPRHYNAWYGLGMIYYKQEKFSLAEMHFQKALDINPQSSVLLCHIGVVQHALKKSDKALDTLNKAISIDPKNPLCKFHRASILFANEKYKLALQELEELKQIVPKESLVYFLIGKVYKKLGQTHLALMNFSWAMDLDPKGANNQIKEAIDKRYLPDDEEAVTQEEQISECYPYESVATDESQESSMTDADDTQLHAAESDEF
APC, sequence (Q6DFD4 entry or part of it, further chain): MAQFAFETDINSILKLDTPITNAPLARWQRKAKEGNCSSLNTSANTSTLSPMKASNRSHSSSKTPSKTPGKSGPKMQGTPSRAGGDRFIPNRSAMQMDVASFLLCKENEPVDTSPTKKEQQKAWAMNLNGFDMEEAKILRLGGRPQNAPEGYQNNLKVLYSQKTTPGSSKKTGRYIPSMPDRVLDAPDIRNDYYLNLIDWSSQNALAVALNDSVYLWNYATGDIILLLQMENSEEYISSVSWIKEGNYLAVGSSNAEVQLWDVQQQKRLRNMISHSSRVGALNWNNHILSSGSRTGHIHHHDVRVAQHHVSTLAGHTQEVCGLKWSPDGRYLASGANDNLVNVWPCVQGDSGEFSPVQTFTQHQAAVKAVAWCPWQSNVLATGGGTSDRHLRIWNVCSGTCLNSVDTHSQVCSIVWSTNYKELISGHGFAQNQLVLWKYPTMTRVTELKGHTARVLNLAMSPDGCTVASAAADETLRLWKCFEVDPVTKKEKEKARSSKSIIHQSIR

Take `COC(=O)[C@H](CCCNC(=N)N)NC(C)=O` [AAME, Acetyl-L-Arginine Methyl Ester]: the “Competition with ^3H-TAME for binding to Xenopus APC” value in the assay on Xenopus APC is on record as “did not”. On APC, the “Inhibition of cyclin B-luciferase proteolysis” value is reported as “showed only low activity”.

Regarding `NCCCOC(=O)NC(Nc1ncccn1)C(Cl)(Cl)Cl` (stereo not shown) [apcin-A], the “Activity on proteolysis of N-terminal ^35S-labeled fragment of cyclin B1 relative to apcin” value in the assay with APC/C is given as “reduced activity”.

As for `Cc1ncc([N+](=O)[O-])n1CCOC(=O)NC(Nc1ncccn1)C(Cl)(Cl)Cl` (stereo not shown) [apcin], the “Effect on Km and kcat of APC-dependent ubiquitination” value at APC/C-Cdc20 is “caused a significant increase (p=0.0039) in the Km (Ki=23 μM) of the reaction but no reduction in kcat”. Further, the “% rate of mitotic exit” value in the assay on RPE1-H2B-GFP cells (Mad2 siRNA) is given as 57.38%; in the assay with RPE1-H2B-GFP cells (control siRNA), 82.87%; in the assay on U2OS-H2B-GFP cells (relative to DMSO control, Cox model, apcin/apcin-M 25 μM) it was 109.64%. Further, the “Median mitotic duration” value in the assay on RPE1-H2B-GFP cells (Table 3, control siRNA) came to 24; with RPE1-H2B-GFP cells (Table 3, mad2 siRNA), 19; in the assay on U2OS-H2B-GFP cells (Table 7, apcin or apcin-M 25 μM), 24.
